Measurements as given in US9248203B2, “Fluorescent imaging with substituted cyanine dyes” (LI-COR, INC., priority 2010, dated 2016).
One block for each compound: values may come before it.

Assays:
U87GM cells = assay: Immunocytochemical binding, blocking and dye control assay, U87GM; assay type: cell-based; details: dye control up to 5 μM, FIG. 7C
Protocol: RGD (Arg-Gly-Asp), the recognition motif used to bind the integrin receptors, was labeled with compound 17. The characteristics of RGD/17 conjugate and the analogous dye carboxylate 16 were evaluated in a cell-based assay.
Compound 17 was conjugated to the peptide RGD by the general procedure set forth in Example 32.
The cell lines U87GM and PC3MLN4 were assayed. Assays included binding, blocking, and carboxylate control. Serial dilutions of compound 16 were prepared at concentrations of 200-6.25 nM. Blocking was accomplished with unlabeled RGD at concentrations of 10-0.31 μM with the addition of 200 nM compound 17-RGD conjugates in all test wells. The compound 16 was evaluated as a dye control for non-specific binding at relatively high levels from 5-0.16 μM with U87GM cells and 1-0.002 μM with PC3 cells.
In the second round of testing with U87GM cells, concentrations of unlabeled RGD and compound 17/RGD were increased (FIGS. 8A and 8B). Binding assay concentrations utilized 0.8-400 nM while the blocking assay used 0.06-30 μM unlabeled RGD with an addition of 200 nM 17/RGD.

[1] = In vivo clearance, Pearl Impulse imaging; design: species or system nude mice; details: for Total: 800 channel; for clearance in vivo (clearance series): FIG. 9, 1 nmole injected, imaged over 24 h
Protocol: Two nude mice were injected with 1 nmole of either compound 16 or IRDye 800CW carboxylate. They were then imaged longitudinally over the next 24 h with the Pearl Impulse imaging system. The results are presented in FIG. 9: in vivo clearance in nudes (FIG. 9A), whole body dorsal views (FIG. 9B), and the rate of clearance (FIG. 9C). The clearance data is presented below in Table 4.

[2] = Absorption wavelength of the cyanine dyes in methanol (halo substitution effect); assay type: physicochemical; details: Table 2
Description: Design Principle: We analyzed the properties of a dye scaffold and related compounds and the corresponding substitution effects on the excitation and emission wavelengths. The small size of fluorine is unlikely to produce steric effects, therefore, we explored the electronic effects of fluorine and related substitutions. The Hammett equation (σ-value) is an important tool to understand the electronic effects of the substituents, therefore, we explored the correlation of the wavelength (λMeOH) and the σ-value (vide infra): […]

[3] = Summary of photophysical properties (absorption, emission, relative fluorescence, quantum yield); assay type: physicochemical; details: head is a formula, relative to IRDye 800 CW
[4] = value used for the standard IRDye 800 CW; cited from earlier work

Compound: CC1(C)C(/C=C/C2=C(c3c(F)cc(F)cc3F)C(=C/C=C3/N(CCCS(=O)(=O)[O-])c4ccc(S(=O)(=O)[O-])cc4C3(C)C)/CC(C(=O)O)C2)=[N+](CCCS(=O)(=O)[O-])c2ccc(S(=O)(=O)[O-])cc21.[Na+].[Na+].[Na+] (stereo not drawn) [Compound 16]
concentration above which relatively high non-specific binding of the dye alone was noted (U87GM cells): above 2 μM | Total ([1]; 1 min): 109682.80 | Total ([1]; 17 min): 282046.59 | Total ([1]; 45 min): 286573.94 | Total ([1]; 71 min): 266647.59 | Total ([1]; 190 min): 139736.97 | Total ([1]; 276 min): 76493.30 | Total ([1]; 1435 min): 1652.69 | clearance in vivo (clearance series) [1]: good clearance in vivo

Compound: CCCCOc1c(F)c(F)c(C2=C(/C=C/C3=[N+](CCCCS(=O)(=O)[O-])c4ccc(S(=O)(=O)[O-])cc4C3(C)C)CCC/C2=C\C=C2\N(CCCCS(=O)(=O)[O-])c3ccc(S(=O)(=O)[O-])cc3C2(C)C)c(F)c1F.[Na+].[Na+].[Na+] [Compound 24]
λMeOH [2]: 790 nm

Compound: CC1(C)C(/C=C/C2=C(c3cccc(F)c3F)C(=C/C=C3/N(CCCCS(=O)(=O)[O-])c4ccc(S(=O)(=O)[O-])cc4C3(C)C)/CCC2)=[N+](CCCCS(=O)(=O)[O-])c2ccc(S(=O)(=O)[O-])cc21.[Na+].[Na+].[Na+] [Compound 62k]
[formula] Odyssey [3]: 104% | [formula] Fluorimeter [3]: 100%

Now from value to compound, other results behind:

λMeOH [2]: 770 nm
Compound: CC1(C)C(/C=C/C2=C(c3cccc(F)c3F)C(=C/C=C3/N(CCCCS(=O)(=O)[O-])c4ccc(S(=O)(=O)[O-])cc4C3(C)C)/CC(C(=O)O)C2)=[N+](CCCCS(=O)(=O)[O-])c2ccc(S(=O)(=O)[O-])cc21.[Na+].[Na+].[Na+] (stereo not drawn) [Compound 63a]

[formula] Odyssey [3]: 100% | [formula] Fluorimeter [3]: 100%
Compound: CC1(C)C(=CC=C2CCCC(C=CC3=[N+](CCCCCC(=O)[O-])c4ccc(S(=O)(=O)[O-])cc4C3(C)C)=C2Oc2ccc(S(=O)(=O)[O-])cc2)N(CCCCS(=O)(=O)[O-])c2ccc(S(=O)(=O)[O-])cc21.[Na+].[Na+].[Na+].[Na+] [IRDye 800CW, reference compound]
Quantum Yield of the standard [4]: 0.07

Total ([1]; 3 min): 114295.49 | Total ([1]; 19 min): 306555.97 | Total ([1]; 47 min): 291381.69 | Total ([1]; 74 min): 272408.13 | Total ([1]; 192 min): 154950.09 | Total ([1]; 278 min): 102698.54 | Total ([1]; 1439 min): 2336.87 | clearance in vivo (clearance series) [1]: good clearance in vivo
Compound: IRDye 800CW carboxylate [reference compound]
